In ChEMBL document CHEMBL4219200, “Beta-sitosterol and its derivatives repress lipopolysaccharide/d-galactosamine-induced acute hepatic injury by inhibiting the oxidation and inflammation in mice” (Bioorg Med Chem Lett, 2018):
The source made the active and inactive calls. The calls are words filed in the database; no cut-off is given here.

Key:
Mus musculus [1] = test: Hepatoprotective activity against lipopolysaccharide/D-galactosamine-induced acute hepatic injury in mouse assessed as increase in survival rate at 50 mg/kg up to 24 hrs; type: functional, organism-based
[2] = Solubility of the compound in water assessed as volume of solvent required to dissolve 1 g of compound; type: physicochemical; conditions: buffer
Mus musculus [3] = test: Hepatoprotective activity against lipopolysaccharide/D-galactosamine-induced acute hepatic injury in mouse assessed as inhibition of LPS/GalN-induced decrease in SOD level in liver at 50 mg/kg; type: functional, organism-based
Mus musculus [4] = test: Hepatoprotective activity against lipopolysaccharide/D-galactosamine-induced acute hepatic injury in mouse assessed as inhibition of LPS/GalN-induced increase in MDA level in liver at 50 mg/kg; type: functional, organism-based
Mus musculus [5] = test: Hepatoprotective activity against lipopolysaccharide/D-galactosamine-induced acute hepatic injury in mouse assessed as inhibition of NFkB mRNA level in liver at 12.5 to 50 mg/kg by RT-PCR analysis; type: functional, organism-based
Mus musculus [6] = test: Hepatoprotective activity against lipopolysaccharide/D-galactosamine-induced acute hepatic injury in mouse assessed as inhibition of LPS/GalN-induced increase in TNFalpha level in serum at 12.5 to 50 mg/kg; type: functional, organism-based
Mus musculus [7] = test: Hepatoprotective activity against lipopolysaccharide/D-galactosamine-induced acute hepatic injury in mouse assessed as increase in Nrf2 mRNA level in liver at 12.5 to 50 mg/kg by RT-PCR analysis; type: functional, organism-based
Mus musculus [8] = test: Hepatoprotective activity against lipopolysaccharide/D-galactosamine-induced acute hepatic injury in mouse assessed as increase in HO1 protein level in liver at 50 mg/kg by Western blot analysis; type: functional, organism-based
Mus musculus [9] = test: Hepatoprotective activity against lipopolysaccharide/D-galactosamine-induced acute hepatic injury in mouse assessed as inhibition of LPS/GalN-induced increase in IL-6 level in serum at 12.5 to 50 mg/kg; type: functional, organism-based
Mus musculus [10] = test: Hepatoprotective activity against lipopolysaccharide/D-galactosamine-induced acute hepatic injury in mouse assessed as inhibition of LPS/GalN-induced decrease in GSH level in liver at 50 mg/kg; type: functional, organism-based
Mus musculus [11] = test: Hepatoprotective activity against lipopolysaccharide/D-galactosamine-induced acute hepatic injury in mouse assessed as inhibition of Il-1beta mRNA level in liver at 12.5 to 50 mg/kg by RT-PCR analysis; type: functional, organism-based
Mus musculus [12] = test: Hepatoprotective activity against lipopolysaccharide/D-galactosamine-induced acute hepatic injury in mouse assessed as reduction in serum ALT level at 50 mg/kg; type: functional, organism-based
Mus musculus [13] = test: Hepatoprotective activity against lipopolysaccharide/D-galactosamine-induced acute hepatic injury in mouse assessed as inhibition of LPS/GalN-induced increase in IL-6 level in liver at 12.5 to 50 mg/kg; type: functional, organism-based
Mus musculus [14] = test: Hepatoprotective activity against lipopolysaccharide/D-galactosamine-induced acute hepatic injury in mouse assessed as inhibition of LPS/GalN-induced increase in TNFalpha level in liver at 12.5 to 50 mg/kg; type: functional, organism-based
Mus musculus [15] = test: Hepatoprotective activity against lipopolysaccharide/D-galactosamine-induced acute hepatic injury in mouse assessed as restoration of hepatic lobular structure at 50 mg/kg up to 24 hrs by microscopic method; type: functional, organism-based
Mus musculus [16] = test: Hepatoprotective activity against lipopolysaccharide/D-galactosamine-induced acute hepatic injury in mouse assessed as inhibition of TNFalpha mRNA level in liver at 12.5 to 50 mg/kg by RT-PCR analysis; type: functional, organism-based
L02 = test: Cytotoxicity against human L02 cells up to 10 uM by MTT assay; type: cell-based
Mus musculus [17] = test: Hepatoprotective activity against lipopolysaccharide/D-galactosamine-induced acute hepatic injury in mouse assessed as reduction in serum AST level at 50 mg/kg; type: functional, organism-based
Mus musculus [18] = test: Hepatoprotective activity against lipopolysaccharide/D-galactosamine-induced acute hepatic injury in mouse assessed as inhibition of LPS/GalN-induced decrease in CAT level in liver at 50 mg/kg; type: functional, organism-based
Mus musculus [19] = test: Hepatoprotective activity against lipopolysaccharide/D-galactosamine-induced acute hepatic injury in mouse assessed as inhibition of liver cell necrosis at 50 mg/kg up to 24 hrs by microscopic method; type: functional, organism-based
Mus musculus [20] = test: Hepatoprotective activity against lipopolysaccharide/D-galactosamine-induced acute hepatic injury in mouse assessed as decrease in NF-kB protein level in liver at 12.5 to 50 mg/kg by Western blot analysis; type: functional, organism-based
Mus musculus [21] = test: Hepatoprotective activity against lipopolysaccharide/D-galactosamine-induced acute hepatic injury in mouse assessed as increase in Nrf2 protein level in liver at 50 mg/kg by Western blot analysis; type: functional, organism-based
Mus musculus [22] = test: Hepatoprotective activity against lipopolysaccharide/D-galactosamine-induced acute hepatic injury in mouse assessed as inhibition of LPS/GalN-induced increase in IL-1beta level in liver at 12.5 to 50 mg/kg; type: functional, organism-based
Mus musculus [23] = test: Hepatoprotective activity against lipopolysaccharide/D-galactosamine-induced acute hepatic injury in mouse assessed as decrease in TLR4 protein level in liver at 12.5 to 50 mg/kg by Western blot analysis; type: functional, organism-based
Mus musculus [24] = test: Hepatoprotective activity against lipopolysaccharide/D-galactosamine-induced acute hepatic injury in mouse assessed as inhibition of LPS/GalN-induced increase in IL-1beta level in serum at 12.5 to 50 mg/kg; type: functional, organism-based
Mus musculus [25] = test: Hepatoprotective activity against lipopolysaccharide/D-galactosamine-induced acute hepatic injury in mouse assessed as increase in IkB protein level in liver at 50 mg/kg by Western blot analysis; type: functional, organism-based

SMILES: CC[C@H](CC[C@@H](C)[C@H]1CC[C@H]2[C@@H]3CC=C4C[C@@H](O)CC[C@]4(C)[C@H]3CC[C@]12C)C(C)C [BETA-SITOSTEROL]
- Activity (Mus musculus [1]): Active
- solubility [2]: <= 10000 ml

SMILES: CC[C@H](CC[C@@H](C)[C@H]1CC[C@H]2[C@@H]3CC=C4C[C@@H](OC(=O)c5ccc6ccccc6c5)CC[C@]4(C)[C@H]3CC[C@]12C)C(C)C
- inhibition (Mus musculus [3]): Active
- inhibition (Mus musculus [4]): Active
- inhibition (Mus musculus [5]): Active
- inhibition (Mus musculus [6]): Active
- Activity (Mus musculus [7]): Active
- Activity (Mus musculus [8]): Active
- inhibition (Mus musculus [9]): Active
- inhibition (Mus musculus [10]): Active
- inhibition (Mus musculus [11]): Active
- Activity (Mus musculus [1]): Active
- Activity (Mus musculus [12]): Active
- inhibition (Mus musculus [13]): Active
- inhibition (Mus musculus [14]): Active
- Activity (Mus musculus [15]): Active
- inhibition (Mus musculus [16]): Active
- Activity (L02): Non-Toxic
- Activity (Mus musculus [17]): Active
- inhibition (Mus musculus [18]): Active
- inhibition (Mus musculus [19]): Active
- Activity (Mus musculus [20]): Active
- Activity (Mus musculus [21]): Active
- solubility [2]: 1000 to 10000 mL
- inhibition (Mus musculus [22]): Active
- Activity (Mus musculus [23]): Active
- inhibition (Mus musculus [24]): Active
- Activity (Mus musculus [25]): Active

SMILES: CC[C@H](CC[C@@H](C)[C@H]1CC[C@H]2[C@@H]3CC=C4C[C@@H](OC(=O)c5ccccc5O)CC[C@]4(C)[C@H]3CC[C@]12C)C(C)C
- Activity (Mus musculus [1]): Active
- Activity (L02): Non-Toxic
- solubility [2]: 1000 to 10000 mL

SMILES: CC[C@H](CC[C@@H](C)[C@H]1CC[C@H]2[C@@H]3CC=C4C[C@@H](OC(=O)c5ccco5)CC[C@]4(C)[C@H]3CC[C@]12C)C(C)C
- Activity (Mus musculus [1]): Active
- Activity (L02): Non-Toxic
- solubility [2]: 1000 to 10000 mL

SMILES: C/C=C/C=C/C(=O)O[C@H]1CC[C@@]2(C)C(=CC[C@H]3[C@@H]4CC[C@H]([C@H](C)CC[C@@H](CC)C(C)C)[C@@]4(C)CC[C@@H]32)C1
- Activity (Mus musculus [1]): Active
- Activity (L02): Non-Toxic
- solubility [2]: 1000 to 10000 mL
